Converted amounts (≈) assume the structure as drawn.
Legend:
Bacillus cereus = experiment: Antibacterial activity against Bacillus cereus MTCC 121 assessed as inhibition of bacterial growth by broth micro-dilution assay; format: functional
Staphylococcus aureus [1] = experiment: Antibacterial activity against Staphylococcus aureus MTCC 96 assessed as inhibition of bacterial growth by broth micro-dilution assay; format: functional
Escherichia coli [2] = experiment: Antibacterial activity against Escherichia coli MTCC 1652 assessed as inhibition of bacterial growth by broth micro-dilution assay; format: functional
Pseudomonas putida = experiment: Antibacterial activity against Pseudomonas putida MTCC102 assessed as inhibition of bacterial growth by broth micro-dilution assay; format: functional
Xanthomonas oryzae = experiment: Antimicrobial activity against Xanthomonas oryzae incubated for 24 to 48 hrs by turbidimeter test; format: functional, organism-based
Xanthomonas axonopodis = experiment: Antimicrobial activity against Xanthomonas axonopodis incubated for 24 to 48 hrs by turbidimeter test; format: functional, organism-based
[3] = Antimicrobial activity against Pseudomonas syringae pv. actinidiae incubated for 24 to 48 hrs by turbidimeter test; format: functional
Cryptococcus neoformans [4] = experiment: Antimicrobial activity against Cryptococcus neoformans ATCC6603 assessed as inhibition of microbial growth incubated for 18 hrs by resazurin dye based two-fold serial dilution assay; format: functional
Cryptococcus neoformans [5] = experiment: Antimicrobial activity against Cryptococcus neoformans clinical isolate assessed as inhibition of microbial growth incubated for 18 hrs by resazurin dye based two-fold serial dilution assay; format: functional
Staphylococcus aureus [6] = experiment: Antimicrobial activity against Staphylococcus aureus assessed as inhibition of microbial growth incubated for 18 hrs by resazurin dye based two-fold serial dilution assay; format: functional
Staphylococcus aureus [7] = experiment: Antimicrobial activity against Staphylococcus aureus clinical isolate assessed as inhibition of microbial growth incubated for 18 hrs by resazurin dye based two-fold serial dilution assay; format: functional
Escherichia coli [8] = experiment: Antibacterial activity against Escherichia coli assessed as zone of inhibition at 400 ug/ml by disc-diffusion method; format: functional; conditions: read-out: IZ
Bacillus subtilis [9] = experiment: Antibacterial activity against Bacillus subtilis assessed as zone of inhibition at 400 ug/ml by disc-diffusion method; format: functional; conditions: read-out: IZ
Pseudomonas aeruginosa [10] = experiment: Antibacterial activity against Pseudomonas aeruginosa assessed as zone of inhibition at 400 ug/ml by disc-diffusion method; format: functional; conditions: read-out: IZ
Macrophomina phaseolina = experiment: Antifungal activity against Macrophomina phaseolina assessed as zone of inhibition at 400 ug/ml by disc-diffusion method; format: functional; conditions: read-out: IZ
Fusarium oxysporum = experiment: Antifungal activity against Fusarium oxysporum assessed as zone of inhibition at 400 ug/ml by disc-diffusion method; format: functional; conditions: read-out: IZ
Aspergillus flavus = experiment: Antifungal activity against Aspergillus flavus assessed as zone of inhibition at 400 ug/ml by disc-diffusion method; format: functional; conditions: read-out: IZ
Aspergillus niger = experiment: Antimicrobial activity against Aspergillus niger RCMB02329 assessed as inhibition of microbial growth; format: functional
Geotrichum candidum = experiment: Antimicrobial activity against Geotrichum candidum RCMB050102 assessed as inhibition of microbial growth; format: functional
Staphylococcus aureus [11] = experiment: Antimicrobial activity against Staphylococcus aureus RCMB000106 assessed as inhibition of microbial growth; format: functional
Bacillus subtilis [12] = experiment: Antimicrobial activity against Bacillus subtilis RCMB 000107 assessed as inhibition of microbial growth; format: functional
Escherichia coli [13] = experiment: Antimicrobial activity against Escherichia coli RCMB000103 assessed as inhibition of microbial growth; format: functional
Klebsiella pneumoniae = experiment: Antimicrobial activity against Klebsiella pneumoniae RCMB000111 assessed as inhibition of microbial growth; format: functional
Salmonella typhimurium [14] = experiment: Antimicrobial activity against Salmonella typhimurium RCMB010072 assessed as inhibition of microbial growth; format: functional, Salmonella enterica subsp. enterica serovar Typhimurium; conditions: Salmonella enterica
Pseudomonas aeruginosa [15] = experiment: Antibacterial activity against Pseudomonas aeruginosa MTCC 1688 assessed as inhibition of bacterial growth incubated for 24 hrs by two-fold serial dilution method; format: functional
Escherichia coli [16] = experiment: Antibacterial activity against Escherichia coli MTCC 1687 assessed as inhibition of bacterial growth incubated for 24 hrs by two-fold serial dilution method; format: functional
Staphylococcus aureus [17] = experiment: Antibacterial activity against Staphylococcus aureus MTCC 96 assessed as inhibition of bacterial growth incubated for 24 hrs by two-fold serial dilution method; format: functional
Bacillus subtilis [18] = experiment: Antibacterial activity against Bacillus subtilis MTCC441 assessed as inhibition of bacterial growth incubated for 24 hrs by two-fold serial dilution method; format: functional
Staphylococcus aureus [19] = experiment: Antibacterial activity against Staphylococcus aureus assessed as inhibition of bacterial growth by broth microdilution method; format: functional
Streptococcus pyogenes = experiment: Antibacterial activity against Streptococcus pyogenes assessed as inhibition of bacterial growth by broth dilution method; format: functional
Salmonella typhimurium [20] = experiment: Antibacterial activity against Salmonella typhimurium assessed as inhibition of bacterial growth by broth dilution method; format: functional, Salmonella enterica subsp. enterica serovar Typhimurium; conditions: Salmonella enterica
Escherichia coli [21] = experiment: Antibacterial activity against Escherichia coli assessed as inhibition of bacterial growth by broth dilution method; format: functional
Staphylococcus aureus [22] = experiment: Antibacterial activity against Staphylococcus aureus […] assessed as inhibition of bacterial growth; format: functional
Bacillus subtilis [23] = experiment: Antibacterial activity against Bacillus subtilis DSM 6333 assessed as inhibition of bacterial growth; format: functional
Proteus mirabilis = experiment: Antibacterial activity against Proteus mirabilis ATCC 29906 assessed as inhibition of bacterial growth; format: functional
Candida albicans [24] = experiment: Antifungal activity against Candida albicans ATCC 1231 assessed as inhibition of fungal growth; format: functional
Staphylococcus aureus [25] = experiment: Antibacterial activity against Staphylococcus aureus assessed as inhibition of bacterial growth incubated for 24 hrs by macrodilution broth method; format: functional
Bacillus subtilis [26] = experiment: Antibacterial activity against Bacillus subtilis assessed as inhibition of bacterial growth incubated for 24 hrs by macrodilution broth method; format: functional
Escherichia coli [27] = experiment: Antibacterial activity against Escherichia coli assessed as inhibition of bacterial growth incubated for 24 hrs by macrodilution broth method; format: functional
Pseudomonas aeruginosa [28] = experiment: Antibacterial activity against Pseudomonas aeruginosa assessed as inhibition of bacterial growth incubated for 24 hrs by macrodilution broth method; format: functional
Staphylococcus aureus [29] = experiment: Antimicrobial activity against Staphylococcus aureus 4220 assessed as inhibition of microbial growth incubated for 24 hrs by two-fold serial dilution assay; format: functional
Staphylococcus aureus [30] = experiment: Antimicrobial activity against methicillin-resistant Staphylococcus aureus CCARM 3167 assessed as inhibition of microbial growth incubated for 24 hrs by two-fold serial dilution assay; format: functional
Streptococcus mutans = experiment: Antimicrobial activity against Streptococcus mutans 3289 assessed as inhibition of microbial growth incubated for 24 hrs by two-fold serial dilution assay; format: functional
Escherichia coli [31] = experiment: Antimicrobial activity against Escherichia coli 1924 assessed as inhibition of microbial growth incubated for 24 hrs by two-fold serial dilution assay; format: functional
Candida albicans [32] = experiment: Antimicrobial activity against Candida albicans 7535 assessed as inhibition of microbial growth incubated for 24 hrs by two-fold serial dilution assay; format: functional
Candida albicans [33] = experiment: Antifungal activity against Candida albicans assessed as inhibition of fungal growth incubated for 1 to 5 days; format: functional; conditions: time 1-5 day

**Q.** Which MIC (Bacillus cereus) does the source give for `O=C(Nc1ccc(F)cc1)C(=O)c1ccc2c(c1)c1ccccc1n2Cc1ccc(Cl)cc1` here?
**A.** 8 µg/mL (≈ 17.5 µM)

**Q.** What about the MIC (Staphylococcus aureus [1]) of the same compound?
**A.** 8 µg/mL (≈ 17.5 µM)

**Q.** And the MIC (Escherichia coli [2])?
**A.** 8 µg/mL (≈ 17.5 µM)

**Q.** And the MIC (Pseudomonas putida)?
**A.** 8 µg/mL (≈ 17.5 µM)

**Q.** For `OC(CNCc1ccc(Cl)cc1)Cn1c2ccccc2c2ccccc21` (stereo unspecified), which EC50 (Xanthomonas oryzae) is on record?
**A.** 1.27 µg/mL (≈ 3.48 µM)

**Q.** And the EC50 (Xanthomonas axonopodis)?
**A.** 1.96 µg/mL (≈ 5.37 µM)

**Q.** And the EC50 [3]?
**A.** 3.83 µg/mL (≈ 10.5 µM)

**Q.** With `COc1cccc2c1[nH]c1ccc(C(=O)N3CCCCC3C)cc12` (stereo unspecified) as the compound, how does the MIC (Cryptococcus neoformans [4]) read?
**A.** 6.25 µg/mL

**Q.** What about the MIC (Cryptococcus neoformans [5]) of the same compound?
**A.** 12.5 µg/mL

**Q.** And the MIC (Staphylococcus aureus [6])?
**A.** 6.25 µg/mL

**Q.** And the MIC (Staphylococcus aureus [7])?
**A.** 6.25 µg/mL

**Q.** What does the source list for `CCn1c2ccccc2c2cc3c(cc21)C(=O)CCC(=O)N3`?
**A.** zone of inhibition at 400 µg/mL (Escherichia coli [8]): 20 mm; zone of inhibition at 400 µg/mL (Bacillus subtilis [9]): 27 mm; zone of inhibition at 400 µg/mL (Pseudomonas aeruginosa [10]): 16 mm; zone of inhibition at 400 µg/mL (Macrophomina phaseolina): 19 mm; zone of inhibition at 400 µg/mL (Fusarium oxysporum): 18 mm; zone of inhibition at 400 µg/mL (Aspergillus flavus): 19 mm

**Q.** For `CCn1c2ccccc2c2cc(/C=N/NC3=NC(=O)/C(=N\Nc4ccccc4)S3)ccc21`, which MIC (Aspergillus niger) is on record?
**A.** 0.49 µg/mL

**Q.** And the MIC (Geotrichum candidum)?
**A.** 0.49 µg/mL

**Q.** And the MIC (Staphylococcus aureus [11])?
**A.** 0.49 µg/mL

**Q.** What about the MIC (Bacillus subtilis [12]) of the same compound?
**A.** 0.49 µg/mL

**Q.** What about the MIC (Escherichia coli [13]) of the same compound?
**A.** 0.49 µg/mL

**Q.** And the MIC (Klebsiella pneumoniae)?
**A.** 0.49 µg/mL

**Q.** What about the MIC (Salmonella typhimurium [14]) of the same compound?
**A.** 0.49 µg/mL

**Q.** What does the source list for `CCOC(=O)C1COC2=C(C(=O)N3c4ccccc4C4C=CC=C2C43)C1c1ccc(OC)cc1` (stereo unspecified)?
**A.** MIC (Pseudomonas aeruginosa [15]): 12.5 µg/mL (≈ 27.4 µM); MIC (Escherichia coli [16]): 6.25 µg/mL (≈ 13.7 µM); MIC (Staphylococcus aureus [17]): 12.5 µg/mL (≈ 27.4 µM); MIC (Bacillus subtilis [18]): 12.5 µg/mL (≈ 27.4 µM)

**Q.** What does the source list for `CCOC(=O)C1=C(C)NC2=C(C(=O)c3ccccc32)C1c1ccc2c(c1)c1ccccc1n2CC` (stereo unspecified)?
**A.** MIC (Staphylococcus aureus [19]): 32 µg/mL (≈ 69.2 µM); MIC (Streptococcus pyogenes): 64 µg/mL (≈ 138 µM); MIC (Salmonella typhimurium [20]): 32 µg/mL (≈ 69.2 µM); MIC (Escherichia coli [21]): 32 µg/mL (≈ 69.2 µM)

**Q.** For `c1ccc2c(c1)c1ccccc1n2Cn1cncn1`, which MIC (Staphylococcus aureus [22]) is on record?
**A.** 31.2 µg/mL (≈ 126 µM)

**Q.** What about the MIC (Bacillus subtilis [23]) of the same compound?
**A.** 31.2 µg/mL (≈ 126 µM)

**Q.** What about the MIC (Proteus mirabilis) of the same compound?
**A.** 31.2 µg/mL (≈ 126 µM)

**Q.** What about the MIC (Candida albicans [24]) of the same compound?
**A.** 0.016 µg/mL (≈ 0.0644 µM)

**Q.** With `COC(=O)C(C)c1ccc2c3cc(Cl)ccc3n(CC(=O)Nc3c(C)cccc3C)c2c1` (stereo unspecified) as the compound, how does the MIC (Staphylococcus aureus [25]) read?
**A.** 0.25 µg/mL (≈ 0.557 µM)

**Q.** And the MIC (Bacillus subtilis [26])?
**A.** 0.25 µg/mL (≈ 0.557 µM)

**Q.** And the MIC (Escherichia coli [27])?
**A.** 0.25 µg/mL (≈ 0.557 µM)

**Q.** And the MIC (Pseudomonas aeruginosa [28])?
**A.** 0.25 µg/mL (≈ 0.557 µM)

**Q.** Which MIC (Staphylococcus aureus [29]) does the source give for `CN(C)C1=NC(c2ccc3c(c2)c2ccccc2n3Cc2ccc(Cl)cc2Cl)N=C(N)N1` (stereo unspecified) here?
**A.** 0.5 µg/mL

**Q.** What about the MIC (Staphylococcus aureus [30]) of the same compound?
**A.** 0.5 µg/mL

**Q.** And the MIC (Streptococcus mutans)?
**A.** 0.5 µg/mL

**Q.** And the MIC (Escherichia coli [31])?
**A.** 0.5 µg/mL

**Q.** And the MIC (Candida albicans [32])?
**A.** 0.5 µg/mL

**Q.** Which MIC (Candida albicans [33]) does the source give for `CCn1c2ccccc2c2cc(-c3cc(-c4cc(Cl)cc(O)c4O)n[nH]3)ccc21` here?
**A.** 25 µg/mL (≈ 61.9 µM)
